# Data from PubChem BioAssay AID651584 (Broad Institute, 2012).
# Values joined by “and” are separate entries in the source; they are usually repeats but may differ in a detail not shown here. Identical values can stand only once. Active and inactive are the calls of the source.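 Rule for the calls: active = viability loss whose fitted half-maximal potency is at most twice the top valid dose for that sample; inconclusive = flat curve with 30 to 70% viability loss, or poor fit; inactive = the rest.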
# Experiments:
# [1] = test system: MALME3 melanoma viability, CellTiter-Glo ATP luminescence, 24 h; assay: MALME3 melanoma cell viability reduction, dose response, orthogonal assay for MITF inhibitor project, CellTiter-Glo luminescence, dry powder, set 5 (AID 651584)
# [2] = as above; conditions: MALME3 melanoma viability, CellTiter-Glo ATP luminescence, 24 h; at 35 µM (top of the series)
SMILES,AC50 [1],"activity change, negative = viability loss [2]"
O=C1C=C(Nc2ccccc2)C(=O)c2ccccc21,5.86 µM and 28.4 µM,–
NC1=C(NS(=O)(=O)c2ccc(Br)s2)C(=O)c2ccccc2C1=O,–,-3.99% (inactive)
